Data on 16 compounds can be found in patent US20250059205A1, “Heterocyclic Compounds and Methods of Use” (AMGEN INC., priority 2021, published 2025).

For assay [1], the target named is GDP-bound KRAS protein (aa 1-169), containing both G12D and C118A amino acid substitutions (Homo sapiens, UniProt P01116, C118A/G12D). Briefly: KRAS G12D Coupled Nucleotide Exchange Assay. Format: biochemical. As to conditions: 2 h compound pre-incubation. How it is done:
Following compound pre-incubation, purified SOS protein (aa 564-1049) and GTP (Roche 10106399001) were added to the assay wells and incubated for an additional 30 min. […] The assay plates were then read on a PerkinElmer EnVision Multilabel Reader, using AlphaScreen® technology, and data were analyzed using a 4-parameter logistic model to calculate IC50 values.

The subject of assay [2] is Phosphorylation of ERK1/2 in A-427 cells. Briefly: Phospho-ERK1/2 MSD Assay (A-427 cells). It counts as cell-based. The note with it: Homo sapiens, A-427, 2 h, 2 h treatment, read-out: p-ERK (A427 cells) IC50. In outline:
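ERK1/2 phosphorylation measured by Meso Scale whole-cell lysate assay after A-427 cells were exposed to a titration of compound for 2 h at 37 °C.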

For assay [3], the system named is Phosphorylation of ERK1/2 in AsPC-1 cells. Briefly: Phospho-ERK1/2 MSD Assay (AsPC-1 cells). Format: cell-based. The note with it: Homo sapiens, ASPC1, 2 h, 2 hours treatment, read-out: p-ERK (AsPC-1 cells) IC50. A digest of the protocol:
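Read-out: MSD electrochemiluminescent detection of phosphorylated ERK1/2 in whole-cell lysates, fitted to a 4-parameter logistic curve for IC50. Prior to lysis, AsPC-1 cells (25,000 per well) received a 2 h compound dose-response at 37 °C.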

Assay [4] has as its target His-tagged KRAS G12D protein (Homo sapiens, UniProt P01116, G12D). Briefly: KRAS G12D TR-FRET Assay. It counts as binding.

Each structure is given as a SMILES string.

A word on the IC50: it is the concentration needed to halve the response being measured.

GDP-bound KRAS protein (aa 1-169), containing both G12D and C118A amino acid substitutions, sequence (P01116 1-169 isoform P01116-2 G12D/C118A): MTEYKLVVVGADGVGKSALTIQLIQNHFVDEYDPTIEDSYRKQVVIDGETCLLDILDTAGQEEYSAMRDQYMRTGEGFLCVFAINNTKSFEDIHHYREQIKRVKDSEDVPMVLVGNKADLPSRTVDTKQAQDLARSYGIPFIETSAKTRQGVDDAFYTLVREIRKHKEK
His-tagged KRAS G12D protein, sequence (P01116 1-188 isoform P01116-2 G12D): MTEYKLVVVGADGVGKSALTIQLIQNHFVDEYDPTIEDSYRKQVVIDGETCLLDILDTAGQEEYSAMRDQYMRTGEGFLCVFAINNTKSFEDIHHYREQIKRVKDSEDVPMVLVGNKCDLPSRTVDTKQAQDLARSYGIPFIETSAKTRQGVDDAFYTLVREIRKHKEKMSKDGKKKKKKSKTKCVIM

Turning to `CCc1c(F)ccc2cc(O)cc(-c3ccc4c(N5C[C@H]6CC[C@@H](C5)N6)nc(OCCC(C)(C)O)nc4c3F)c12` [Example 132, 4-(4-((1R,5S)-3,8-diazabicyclo[3.2.1]octan-3-yl)-8-fluoro-2-(3-hydroxy-3-methylbutoxy)quinazolin-7-yl)-5-ethyl-6-fluoronaphthalen-2-ol], the “Avg 2 h Coupled Exchange IC50” value in assay [1] was found to be 6 nM. The values for the half-maximal inhibitory concentration (IC50) in assay [2], in assay [3] and in assay [4] were 1690 nM, 1200 nM and 16 nM, respectively.

For `CCc1c(F)ccc2cc(O)cc(-c3ccc4c(N5C[C@H]6CC[C@@H](C5)N6)nc(OCC5(O)CCCC5)nc4c3F)c12` [Example 133, 4-(4-((1R,5S)-3,8-diazabicyclo[3.2.1]octan-3-yl)-8-fluoro-2-((1-hydroxycyclopentyl)methoxy)quinazolin-7-yl)-5-ethyl-6-fluoronaphthalen-2-ol], the “Avg 2 h Coupled Exchange IC50” value in assay [1] amounted to 6 nM. Besides, the 50% inhibitory concentration (IC50) in assay [2] is 2430 nM; in assay [3], 2040 nM; in assay [4], 7 nM.

In the case of `CCc1c(F)ccc2cc(O)cc(-c3c(Cl)cc4c(N5C[C@H]6CC[C@@H](C5)N6)nc(OC[C@@]56CCCN5C[C@H](F)C6)nc4c3F)c12` [Example 134, 4-(4-((1R,5S)-3,8-diazabicyclo[3.2.1]octan-3-yl)-6-chloro-8-fluoro-2-(((2R,7aS)-2-fluorotetrahydro-1H-pyrrolizin-7a(5H)-yl)methoxy)quinazolin-7-yl)-5-ethyl-6-fluoronaphthalen-2-ol], the “Avg 2 h Coupled Exchange IC50” value in assay [1] worked out at 7 nM. Also, the results for the IC50 in assay [2], in assay [3] and in assay [4] were 57 nM, 74 nM and 4 nM, respectively.

As to `CCc1c(F)ccc2cc(O)cc(-c3ccc4c(N5C[C@H]6CC[C@@H](C5)N6)nc(OCC5(O)CCC5)nc4c3F)c12` [Example 135, 4-(4-((1R,5S)-3,8-diazabicyclo[3.2.1]octan-3-yl)-8-fluoro-2-((1-hydroxycyclobutyl)methoxy)quinazolin-7-yl)-5-ethyl-6-fluoronaphthalen-2-ol], the “Avg 2 h Coupled Exchange IC50” value in assay [1] was determined as 9 nM. Besides, the IC50 in assay [2] was determined as 2120 nM; in assay [3], 2270 nM; in assay [4] it was 10 nM.

As to `CCc1c(F)ccc2cc(O)cc(-c3ccc4c(N5C[C@H]6CC[C@@H](C5)N6)nc(O[C@@H](C)C(C)(C)O)nc4c3F)c12` [Example 136, 4-(4-((1R,5S)-3,8-diazabicyclo[3.2.1]octan-3-yl)-8-fluoro-2-(((S)-3-hydroxy-3-methylbutan-2-yl)oxy)quinazolin-7-yl)-5-ethyl-6-fluoronaphthalen-2-ol], in assay [1], the “Avg 2 h Coupled Exchange IC50” value was found to be 21 nM. The values for the IC50 in assay [2], in assay [3] and in assay [4] were 5350 nM, 4160 nM and 56 nM, respectively.

Regarding `Oc1cc(-c2c(Cl)cc3c(N4C[C@H]5CC[C@@H](C4)N5)nc(OC[C@@]45CCCN4C[C@H](F)C5)nc3c2F)c2c(F)cccc2c1` [Example 137, 4-(4-((1R,5S)-3,8-diazabicyclo[3.2.1]octan-3-yl)-6-chloro-8-fluoro-2-(((2R,7aS)-2-fluorotetrahydro-1H-pyrrolizin-7a(5H)-yl)methoxy)quinazolin-7-yl)-5-fluoronaphthalen-2-ol], the “Avg 2 h Coupled Exchange IC50” value in assay [1] is 34 nM. For the same compound, the values for the IC50 in assay [2], in assay [3] and in assay [4] were 411 nM, 1710 nM and 37 nM, respectively.

Take `CCc1c(F)ccc2cc(O)cc(-c3ccc4c(N5C[C@H]6COC[C@@H](C5)N6)nc(OC[C@@]56CCCN5C[C@H](F)C6)nc4c3F)c12` [Example 138, 4-(4-((1R,5S)-3-oxa-7,9-diazabicyclo[3.3.1]nonan-7-yl)-8-fluoro-2-(((2R,7aS)-2-fluorotetrahydro-1H-pyrrolizin-7a(5H)-yl)methoxy)quinazolin-7-yl)-5-ethyl-6-fluoronaphthalen-2-ol]: the “Avg 2 h Coupled Exchange IC50” value in assay [1] worked out at 4 nM. For the same compound, the IC50 in assay [2] amounted to 72 nM; in assay [3], 216 nM; in assay [4] it was 3 nM.

`CCc1c(F)ccc2cc(O)cc(-c3ccc4c(N5C[C@@H]6CC[C@H]5CN6)nc(OC[C@@]56CCCN5C[C@H](F)C6)nc4c3F)c12` [Example 139, 4-(4-((1S,4S)-2,5-diazabicyclo[2.2.2]octan-2-yl)-8-fluoro-2-(((2R,7aS)-2-fluorotetrahydro-1H-pyrrolizin-7a(5H)-yl)methoxy)quinazolin-7-yl)-5-ethyl-6-fluoronaphthalen-2-ol]: the “Avg 2 h Coupled Exchange IC50” value in assay [1] came to 4 nM. For the same compound, the IC50 turned out to be 8 nM in assay [2], 44 nM in assay [3] and 5 nM in assay [4].

On to `Oc1cc(-c2ccc3c(N4C[C@@H]5CC[C@H]4CN5)nc(OC[C@@]45CCCN4C[C@H](F)C5)nc3c2F)c2c(F)c(F)ccc2c1` [Example 140, 4-(4-((1S,4S)-2,5-diazabicyclo[2.2.2]octan-2-yl)-8-fluoro-2-(((2R,7aS)-2-fluorotetrahydro-1H-pyrrolizin-7a(5H)-yl)methoxy)quinazolin-7-yl)-5,6-difluoronaphthalen-2-ol], for which the “Avg 2 h Coupled Exchange IC50” value in assay [1] was determined as 1 nM. Also, the IC50 in assay [2] came to 11 nM; in assay [3], 70 nM; in assay [4], 2 nM.

As for `Oc1cc(-c2ccc3c(N4C[C@H]5CC[C@@H](C4)N5)nc(OC[C@@]45CCCN4C[C@H](F)C5)nc3c2F)c2c(F)cccc2c1` [Example 141, 4-(4-((1R,5S)-3,8-diazabicyclo[3.2.1]octan-3-yl)-8-fluoro-2-(((2R,7aS)-2-fluorotetrahydro-1H-pyrrolizin-7a(5H)-yl)methoxy)quinazolin-7-yl)-5-fluoronaphthalen-2-ol], the “Avg 2 h Coupled Exchange IC50” value in assay [1] amounted to 1 nM. In addition, the IC50 was 10 nM in assay [2], 93 nM in assay [3] and 2 nM in assay [4].

For `Oc1cc(-c2ccc3c(N4C[C@H]5CC[C@@H](C4)N5)nc(OC[C@@]45CCCN4C[C@H](F)C5)nc3c2F)c2c(F)c(F)ccc2c1` [Example 142, 4-(4-((1R,5S)-3,8-diazabicyclo[3.2.1]octan-3-yl)-8-fluoro-2-(((2R,7aS)-2-fluorotetrahydro-1H-pyrrolizin-7a(5H)-yl)methoxy)quinazolin-7-yl)-5,6-difluoronaphthalen-2-ol], in assay [1], the “Avg 2 h Coupled Exchange IC50” value was 2 nM. In addition, the concentration for half-maximal inhibition (IC50) came out at 6 nM in assay [2], 19 nM in assay [3] and 2 nM in assay [4].

Take `Oc1cc(Cl)c(C2CC2)c(-c2c(F)cc3c(N4C[C@H]5CC[C@@H](C4)N5)nc(OC[C@@]45CCCN4C[C@H](F)C5)nc3c2F)c1` [Example 144, 3-(4-((1R,5S)-3,8-diazabicyclo[3.2.1]octan-3-yl)-6,8-difluoro-2-(((2R,7aS)-2-fluorotetrahydro-1H-pyrrolizin-7a(5H)-yl)methoxy)quinazolin-7-yl)-5-chloro-4-cyclopropylphenol]: the “Avg 2 h Coupled Exchange IC50” value in assay [1] worked out at 3 nM. In addition, the IC50 in assay [2] worked out at 23 nM; in assay [3] it was 41 nM; in assay [4], 3 nM.

With `Oc1cc(Cl)c(C2CC2)c(-c2ccc3c(N4C[C@H]5CC[C@@H](C4)N5)nc(OC[C@@]45CCCN4C[C@H](F)C5)nc3c2F)c1` [Example 145, 3-(4-((1R,5S)-3,8-diazabicyclo[3.2.1]octan-3-yl)-8-fluoro-2-(((2R,7aS)-2-fluorotetrahydro-1H-pyrrolizin-7a(5H)-yl)methoxy)quinazolin-7-yl)-5-chloro-4-cyclopropylphenol], the “Avg 2 h Coupled Exchange IC50” value in assay [1] worked out at 3 nM. Moreover, the results for the half-inhibitory concentration (IC50) in assay [2], in assay [3] and in assay [4] were 11 nM, 39 nM and 2 nM, respectively.

Regarding `CCc1c(F)ccc2cc(O)cc(-c3ccc4c(N5[C@@H]6CC[C@H]5CNC6)nc(OC[C@@]56CCCN5C[C@H](F)C6)nc4c3F)c12` [Example 146, 4-(4-((1R,5S)-3,8-diazabicyclo[3.2.1]octan-8-yl)-8-fluoro-2-(((2R,7aS)-2-fluorotetrahydro-1H-pyrrolizin-7a(5H)-yl)methoxy)quinazolin-7-yl)-5-ethyl-6-fluoronaphthalen-2-ol], the “Avg 2 h Coupled Exchange IC50” value in assay [1] amounted to 3 nM. In addition, the IC50 in assay [2] stood at 83 nM; in assay [3], 129 nM; in assay [4], 1 nM.

On to `CCc1cccc2cc(O)cc(-c3c(F)cc4c(N5C[C@H]6CC[C@@H](C5)N6)nc(OC[C@@]56CCCN5C[C@H](F)C6)nc4c3F)c12` [Example 147, 4-(4-((1R,5S)-3,8-diazabicyclo[3.2.1]octan-3-yl)-6,8-difluoro-2-(((2R,7aS)-2-fluorotetrahydro-1H-pyrrolizin-7a(5H)-yl)methoxy)quinazolin-7-yl)-5-ethylnaphthalen-2-ol], for which, in assay [1], the “Avg 2 h Coupled Exchange IC50” value came out at 2 nM. The IC50 worked out at 3 nM in assay [2], 25 nM in assay [3] and 3 nM in assay [4].

In the case of `Oc1cc(-c2c(F)cc3c(N4[C@@H]5CC[C@H]4CNC5)nc(OC[C@@]45CCCN4C[C@H](F)C5)nc3c2F)c2c(F)c(F)ccc2c1` [Example 148, 4-(4-((1R,5S)-3,8-diazabicyclo[3.2.1]octan-8-yl)-6,8-difluoro-2-(((2R,7aS)-2-fluorotetrahydro-1H-pyrrolizin-7a(5H)-yl)methoxy)quinazolin-7-yl)-5,6-difluoronaphthalen-2-ol], in assay [1], the “Avg 2 h Coupled Exchange IC50” value turned out to be 2 nM. Moreover, the IC50 in assay [2] amounted to 83 nM; in assay [3], 143 nM; in assay [4] it was 2 nM.
